Assay results from patent US20240327789A1, “HUMAN CEREBELLAR ORGANOIDS WITH BONA FIDE PURKINJE CELLS AND USES THEREOF” (University of Southern California, priority 2023, published 2024).

System: hCerOs
Assay: Two-photon calcium imaging of intact hCerOs with bath application of drugs
Format: cell-based, human

For NC1=N[C@H](O)[C@H]2[C@H]3O[C@]4(O)O[C@@H]([C@@H](O)[C@@]2(N1)[C@@H]4O)[C@]3(O)CO [Tetrodotoxin], the “sensitivity of individual Ca2+ neuronal calcium signals” value was “sensitive”.
